Test results reported in US9642870B2, “Composition for preventing or alleviating atopic dermatitis comprising immunosuppressant and transglutaminase 2 inhibitor” (Dongguk University Industry-Academic Cooperation Foundation, priority 2011, dated 2017).

Assays:
[1] = in vivo
[2] = test system: IgE; assay: Total serum IgE (ELISA); format: in vivo, mice; conditions: administered alone, compared with the control
Procedure: Since the major symptoms of atopic dermatitis were associated with strong Th2 immune response, IgE was produced at an excessive amount. Therefore, either glucosamine or tacrolimus was administered alone to the atopy-induced mice, or glucosamine and tacrolimus were administered in combination to measure a level of IgE in the serum. After one week had elapsed after the final administration, sera were obtained from the mice, and a total level of IgE was measured using an ELISA kit (Yamasa, Tokyo, Japan).

[3] = test system: severe atopic dermatitis patients; assay: Clinical test: objective SCORAD index in atopic dermatitis patients; conditions: FIG. 17
Procedure: During the experiments, the vital signs, that is, a blood pressure and a pulse, were measured after patients sat for 3 minutes to rest.
Thereafter, the SCORAD indexes were measured. […] The SCORAD indexes were measured before dosage and at points of time at which the dosage methods were changed. It was assumed that an area of lesions was set to 0 to 100% according to the rule of nine, the SCORAD index was calculated as the sum (0-103) of an objective SCORAD index and a subjective SCORAD index. Here, the objective SCORAD index was calculated by dividing the severity of atopic dermatitis, which was divided into 6 categories of erythema, edema/papulation, oozing/crusts, excoriations, lichenification and skin dryness, by 0 to 3, summing up the calculated values, and adding the sum of the calculated values to ⅕ of the area of the lesions, and the subjective SCORAD index was obtained by setting each of pruritus and dyssomnia during waking hours to analog scales 0 to 10 (European Task Force on Atopic Dermatitis, 1993). […] Therefore, only the objective SCORAD index was evaluated in this Example.
The changes in the SCORAD indexes of the 10 patients were plotted on one graph.
Then, average lines plotted from the results of all the patients were drawn, and compared.

[4] = test system: IFN-g, IL-4, IL-5; assay: Immunosuppressive effects of immunosuppressants administered alone (IFN-g, IL-4, IL-5 concentrations); format: cell-based; conditions: FIGS. 24 to 26
Excerpt: Further, immunosuppressive effects according to the kinds of immunosuppressants were further confirmed through experiments conducted to determine a proper dosage concentration.

[5] = Minimum and maximum doses from experiments conducted at a cell level; format: cell-based; conditions: no difference in inhibition level

Structure (SMILES) | blood glucosamine concentrations, animals versus humans [1] | total level of IgE in the serum [2] | change in SCORAD indexes ([3]; glucosamine administered alone, November 10 to November 24) | therapeutic effect (SCORAD indexes), summary ([3]; single versus combined administration) | immunosuppressive effect (changes in concentrations of IFN-g, IL-4, IL-5) [4] | dose required relative to cyclosporine [5]
N[C@H]1C(O)O[C@H](CO)[C@@H](O)[C@@H]1O (stereo partly shown) [glucosamine] | no significant difference | no clear difference | no change | poor therapeutic effect | – | –
C=CC[C@@H]1/C=C(\C)C[C@H](C)C[C@H](OC)[C@H]2O[C@@](O)(C(=O)C(=O)N3CCCC[C@H]3C(=O)O[C@H](/C(C)=C/[C@@H]3CC[C@@H](O)[C@H](OC)C3)[C@H](C)[C@@H](O)CC1=O)[C@H](C)C[C@@H]2OC [tacrolimus] | – | no clear difference | – | – | suppressed an immune response | lower dose than cyclosporine by a factor of 10
